# Laboratory results from patent US4242261A, “Production of methylene-cycloamines” (A. H. Robins Company, Inc., priority 1979, dated 1980).
# Several values for one entry are separate records, joined by “and”; a condition that tells them apart may be missing. Equal values may be shown once. Read-outs that look alike come from different tables or passages of the source.
# Tested on: Tetrabenazine-Induced Ptosis
# Test: Blockade of Tetrabenazine-Induced Ptosis in Mice (antidepressant activity)
# Type: in vivo, mice (ICR-DUB strain)
# Settings: female mice; for ED50: Mus musculus
# Experimental: Thirty minutes later the presence or absence of complete eyelid closure (ptosis) is assessed in each animal. For compounds which produced blockage of ptosis in all animals, and ED50 value is obtained using a minimum of three geometrically spaced dosages with five mice/dose.
# [1] = IP, 30 min before tetrabenazine 32 mg/kg IP, test compounds in text, read-out: ED50 (confidence limits)
# [2] = ip, read-out: ED50 (95% confidence limits), IP, 30 min before tetrabenazine 32 mg/kg IP, Table 1 reference agents, probit analysis
Compound,ED50 [1],"ED50 (95% confidence limits) (IP, 30 min before tetrabenazine 32 mg/kg IP, Table 1 reference agents, probit analysis)",ED50 [2]
CC(C)N1CC(=C(c2ccccc2)c2ccccc2)C1.O=C(O)C(=O)O [1-isopropyl-3-diphenylmethyleneazetidine oxalate],2.18 mg/kg,,
CN1CC(=C(c2ccccc2)c2ccccc2)C1 [1-methyl-3-diphenylmethyleneazetidine],1.48 mg/kg,,
CN(C)CCCN1c2ccccc2CCc2ccccc21 [imipramine],,0.4 (0.2-0.9) mg/kg and 0.5 (0.2-1.2) mg/kg,0.3 mg/kg
CCOc1ccccc1OCC1CNCCO1 (centres unmarked) [viloxazine],,,1.5 mg/kg
